Source: ChEMBL document CHEMBL3576802 (J Med Chem, 2015)
Where a SMILES comes first, the peptide text is derived from it. Bridges are numbered along the chain shown (N, C = ends). [ ]: non-standard residue; d: D form. Bip = N[C@@H](Cc1ccc(-c2ccccc2)cc1)C(=O)O; 1Nal = N[C@@H](Cc1cccc2ccccc12)C(=O)O

Columns and labels:
Type in all cases: cell-based
Melanocortin receptor 3 = Melanocortin receptor 3 (Mus musculus, UniProt P33033); experiment: Displacement of MTII from mouse MC3R expressed in HEK293 cells; settings: for Kb: read-out: pA2 (converted)
Melanocortin receptor 4 = Melanocortin receptor 4 (Mus musculus, UniProt P56450); experiment: Displacement of MTII from mouse MC4R expressed in HEK293 cells; settings: for Kb: read-out: pA2 (converted)
[1] = molecular target: Melanocyte-stimulating hormone receptor (Mus musculus, UniProt Q01727); experiment: Agonist activity at mouse MC1R expressed in HEK293 cells by cAMP functional bioassay
[2] = molecular target: Melanocyte-stimulating hormone receptor (Mus musculus) (UniProt Q01727); experiment: Agonist activity at mouse MC1R expressed in HEK293 cells at 100 uM by cAMP functional bioassay
Sequence of Melanocyte-stimulating hormone receptor (Mus musculus) (Q01727 whole entry, looked up): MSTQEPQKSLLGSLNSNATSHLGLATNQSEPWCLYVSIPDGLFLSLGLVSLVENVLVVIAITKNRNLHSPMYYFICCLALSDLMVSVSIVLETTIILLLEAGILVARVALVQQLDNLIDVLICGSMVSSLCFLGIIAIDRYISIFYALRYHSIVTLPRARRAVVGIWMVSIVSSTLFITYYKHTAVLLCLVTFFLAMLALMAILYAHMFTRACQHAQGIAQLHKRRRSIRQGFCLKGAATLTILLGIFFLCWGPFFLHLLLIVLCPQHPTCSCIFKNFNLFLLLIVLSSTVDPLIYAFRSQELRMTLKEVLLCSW

Sequence of Melanocortin receptor 4 (P56450 whole entry): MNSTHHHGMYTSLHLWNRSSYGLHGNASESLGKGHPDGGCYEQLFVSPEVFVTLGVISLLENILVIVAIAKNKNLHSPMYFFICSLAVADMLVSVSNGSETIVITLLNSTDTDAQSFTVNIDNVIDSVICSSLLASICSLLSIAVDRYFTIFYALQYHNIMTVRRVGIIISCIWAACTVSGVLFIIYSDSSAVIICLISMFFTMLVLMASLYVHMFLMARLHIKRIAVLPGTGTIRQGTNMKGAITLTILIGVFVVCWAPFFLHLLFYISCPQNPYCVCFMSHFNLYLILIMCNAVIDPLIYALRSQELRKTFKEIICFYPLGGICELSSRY
Sequence of Melanocortin receptor 3 (P33033 whole entry): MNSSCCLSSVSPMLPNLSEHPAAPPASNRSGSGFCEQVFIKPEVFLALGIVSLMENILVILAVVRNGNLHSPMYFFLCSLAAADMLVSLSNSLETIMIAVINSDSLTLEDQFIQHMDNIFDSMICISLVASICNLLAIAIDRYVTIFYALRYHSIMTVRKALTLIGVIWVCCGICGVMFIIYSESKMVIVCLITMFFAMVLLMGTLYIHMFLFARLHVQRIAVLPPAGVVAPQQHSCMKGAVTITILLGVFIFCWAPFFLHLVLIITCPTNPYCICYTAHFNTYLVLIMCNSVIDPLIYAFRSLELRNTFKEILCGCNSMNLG
Sequence of Melanocyte-stimulating hormone receptor (Q01727 whole entry): as the sequence (Q01727 whole entry, looked up) above

CC(=O)N[C@H](C(=O)N[C@H]1CSSC[C@@H](C(=O)N[C@@H](CCCNC(=N)N)C(N)=O)NC(=O)[C@H](Cc2ccc(O)cc2)NC(=O)[C@H]2CSSC[C@H](NC(=O)[C@H](Cc3ccc(O)cc3)NC1=O)C(=O)N[C@@H](CCCNC(=N)N)C(=O)N[C@@H](Cc1ccccc1)C(=O)N[C@@H](Cc1ccccc1)C(=O)N[C@@H](CC(N)=O)C(=O)N[C@@H](C)C(=O)N[C@@H](Cc1ccccc1)C(=O)N2)[C@@H](C)O
Kb (Melanocortin receptor 3): 631 nM

C[C@@H]1NC(=O)[C@H](CC(N)=O)NC(=O)[C@H](Cc2cccc3ccccc23)NC(=O)[C@H](Cc2ccccc2)NC(=O)[C@H](CCCNC(=N)N)NC(=O)[C@@H]2CCCN2C(=O)[C@H]2CCCN2C(=O)[C@H](Cc2ccccc2)NC1=O
Ki (Melanocortin receptor 4; hek293): 16 nM
pA2 (Melanocortin receptor 4; hek293): 7.8
EC50 ([1]; hek293): 12700 nM

C[C@@H]1NC(=O)[C@H](CC(N)=O)NC(=O)[C@H](Cc2ccccc2)NC(=O)[C@H](Cc2ccc(-c3ccccc3)cc2)NC(=O)[C@H](CCCNC(=N)N)NC(=O)[C@@H]2CCCN2C(=O)[C@H]2CCCN2C(=O)[C@H](Cc2ccccc2)NC1=O (cyclo(R[Bip]FNAF[dP]P))
Ki (Melanocortin receptor 3): 630 nM
Kb (Melanocortin receptor 3): 631 nM
Ki (Melanocortin receptor 4): 160 nM
Kb (Melanocortin receptor 4): 158 nM
EC50 [1]: 800 nM

C[C@@H]1NC(=O)[C@H](CC(N)=O)NC(=O)[C@@H]2Cc3ccccc3CN2C(=O)[C@H](Cc2ccccc2)NC(=O)[C@H](CCCNC(=N)N)NC(=O)[C@@H]2CCCN2C(=O)[C@H]2CCCN2C(=O)[C@H](Cc2ccccc2)NC1=O
EC50 ([1]; hek293): 3900 nM

C[C@@H]1NC(=O)[C@H](CCCCN)NC(=O)[C@H](Cc2ccccc2)NC(=O)[C@H](Cc2ccccc2)NC(=O)[C@H](CCCNC(=N)N)NC(=O)[C@@H]2CCCN2C(=O)[C@H]2CCCN2C(=O)[C@H](Cc2ccccc2)NC1=O
Ki (Melanocortin receptor 3): 100 nM
Kb (Melanocortin receptor 3): 100 nM
Ki (Melanocortin receptor 4): 5 nM
Kb (Melanocortin receptor 4): 5.01 nM

CC(=O)N[C@H](C(=O)N[C@H]1CSSC[C@@H](C(=O)N[C@@H](CCCNC(=N)N)C(N)=O)NC(=O)[C@H](Cc2ccc(O)cc2)NC(=O)[C@@H]2CSSC[C@H](NC(=O)[C@H](Cc3ccc(O)cc3)NC1=O)C(=O)N[C@@H](CCCNC(=N)N)C(=O)N[C@@H](Cc1ccccc1)C(=O)N[C@@H](Cc1ccccc1)C(=O)N[C@@H](CC(N)=O)C(=O)N[C@@H](C)C(=O)N[C@@H](Cc1ccccc1)C(=O)N2)[C@@H](C)O
Kb (Melanocortin receptor 4): 63.1 nM

C[C@@H]1NC(=O)[C@H](CC(N)=O)NC(=O)[C@H](Cc2ccccc2)NC(=O)[C@H](c2ccccc2)NC(=O)[C@H](CCCNC(=N)N)NC(=O)[C@@H]2CCCN2C(=O)[C@H]2CCCN2C(=O)[C@H](Cc2ccccc2)NC1=O
EC50 ([1]; hek293): 13600 nM

C[C@@H]1NC(=O)CNC(=O)[C@H](Cc2ccccc2)NC(=O)[C@H](Cc2ccccc2)NC(=O)[C@H](CCCNC(=N)N)NC(=O)[C@@H]2CCCN2C(=O)[C@H]2CCCN2C(=O)[C@H](Cc2ccccc2)NC1=O
Ki (Melanocortin receptor 3): 25 nM
Kb (Melanocortin receptor 3): 25.1 nM
Activity [2]: 50%
Ki (Melanocortin receptor 4): 4 nM
Kb (Melanocortin receptor 4): 3.98 nM

C[C@@H]1NC(=O)[C@H](Cc2ccccc2)NC(=O)[C@H](C)NC(=O)[C@H](CC(N)=O)NC(=O)[C@H](Cc2ccccc2)NC(=O)[C@H](Cc2ccccc2)NC(=O)[C@H](CCCNC(=N)N)NC(=O)[C@H](C)NC(=O)[C@H](Cc2ccc(O)cc2)NC(=O)[C@@H]2CCCN2C(=O)[C@H]2CCCN2C(=O)[C@H](Cc2ccc(O)cc2)NC1=O
EC50 [1]: 17600 nM

C[C@@H]1NC(=O)[C@H](CC(N)=O)NC(=O)[C@H](Cc2ccccc2)NC(=O)[C@H](CCc2ccccc2)NC(=O)[C@H](CCCNC(=N)N)NC(=O)[C@@H]2CCCN2C(=O)[C@H]2CCCN2C(=O)[C@H](Cc2ccccc2)NC1=O
Ki (Melanocortin receptor 4; hek293): 100 nM
pA2 (Melanocortin receptor 4; hek293): 7
EC50 ([1]; hek293): 1500 nM

C[C@H](NC(=O)[C@H](Cc1ccc(O)cc1)NC(=O)[C@@H]1CSSC[C@H](NC(=O)[C@H](Cc2ccc(O)cc2)NC(=O)[C@H](C)NC(=O)[C@@H](N)[C@@H](C)O)C(=O)N[C@@H](CCCNC(=N)N)C(=O)N[C@@H](Cc2ccccc2)C(=O)N[C@@H](Cc2ccccc2)C(=O)N[C@@H](CC(N)=O)C(=O)N[C@@H](C)C(=O)N[C@@H](Cc2ccccc2)C(=O)N1)C(=O)N[C@@H](CCCNC(=N)N)C(N)=O (H-TAYCRFFNAFCYAR-NH2; disulfide 4-11)
Kb (Melanocortin receptor 3): 794 nM

C[C@@H]1NC(=O)[C@H](CC(N)=O)NC(=O)[C@H](Cc2ccccc2)NC(=O)[C@H](Cc2ccccc2)NC(=O)[C@H](CCCNC(=N)N)NC(=O)[C@@H]2CCCN2C(=O)[C@H]2CCCN2C(=O)[C@H](Cc2ccccc2)NC1=O
EC50 [1]: 4500 nM

C[C@@H]1NC(=O)[C@H](CC(N)=O)NC(=O)[C@H](Cc2ccc(-c3ccccc3)cc2)NC(=O)[C@H](Cc2ccccc2)NC(=O)[C@H](CCCNC(=N)N)NC(=O)[C@@H]2CCCN2C(=O)[C@H]2CCCN2C(=O)[C@H](Cc2ccccc2)NC1=O
Ki (Melanocortin receptor 4): 160 nM
Kb (Melanocortin receptor 4): 158 nM
EC50 [1]: 500 nM

C[C@@H]1NC(=O)C(CCN)NC(=O)[C@H](Cc2ccccc2)NC(=O)[C@H](Cc2ccccc2)NC(=O)[C@H](CCCNC(=N)N)NC(=O)[C@@H]2CCCN2C(=O)[C@H]2CCCN2C(=O)[C@H](Cc2ccccc2)NC1=O (stereo not given in full)
Ki (Melanocortin receptor 3): 100 nM
Kb (Melanocortin receptor 3): 100 nM
Activity [2]: 50%

C[C@@H]1NC(=O)[C@H](CC(N)=O)NC(=O)C(Cc2cccc3ccccc23)NC(=O)[C@H](Cc2ccccc2)NC(=O)[C@H](CCCNC(=N)N)NC(=O)[C@@H]2CCCN2C(=O)[C@H]2CCCN2C(=O)[C@H](Cc2ccccc2)NC1=O (stereo not given in full)
Ki (Melanocortin receptor 3): 2500 nM
Kb (Melanocortin receptor 3): 2510 nM

C[C@@H]1NC(=O)[C@H](CC(N)=O)NC(=O)[C@H](Cc2ccccc2)NC(=O)[C@H](Cc2ccc3ccccc3c2)NC(=O)[C@H](CCCNC(=N)N)NC(=O)[C@@H]2CCCN2C(=O)[C@H]2CCCN2C(=O)[C@H](Cc2ccccc2)NC1=O
Ki (Melanocortin receptor 4; hek293): 100 nM
pA2 (Melanocortin receptor 4; hek293): 7
EC50 ([1]; hek293): 8800 nM

CC(=O)N[C@H]1CSSC[C@@H](C(N)=O)NC(=O)[C@H](Cc2ccccc2)NC(=O)[C@H](C)NC(=O)[C@H](CC(N)=O)NC(=O)[C@H](Cc2ccccc2)NC(=O)[C@H](Cc2ccccc2)NC(=O)[C@H](CCCNC(=N)N)NC1=O
IC50 (Melanocortin receptor 4; hek293): Not Active

C[C@@H]1NC(=O)[C@H](CC(N)=O)NC(=O)[C@H](Cc2ccccc2)NC(=O)C(Cc2ccc3ccccc3c2)NC(=O)[C@H](CCCNC(=N)N)NC(=O)[C@@H]2CCCN2C(=O)[C@H]2CCCN2C(=O)[C@H](Cc2ccccc2)NC1=O (stereo not given in full)
Ki (Melanocortin receptor 3): 1000 nM
Kb (Melanocortin receptor 3): 1000 nM

C[C@@H]1NC(=O)C(CCCN)NC(=O)[C@H](Cc2ccccc2)NC(=O)[C@H](Cc2ccccc2)NC(=O)[C@H](CCCNC(=N)N)NC(=O)[C@@H]2CCCN2C(=O)[C@H]2CCCN2C(=O)[C@H](Cc2ccccc2)NC1=O (stereo not given in full)
Ki (Melanocortin receptor 3): 160 nM
Kb (Melanocortin receptor 3): 158 nM
Activity [2]: 30%

C[C@@H]1NC(=O)[C@H](CC(N)=O)NC(=O)[C@H](Cc2ccccc2)NC(=O)[C@H](Cc2ccccc2)NC(=O)[C@H](CCCNC(=N)N)NC(=O)[C@H]([C@@H](C)O)NC(=O)[C@H](Cc2ccc(O)cc2)NC(=O)[C@@H]2CCCN2C(=O)[C@H]2CCCN2C(=O)[C@H](Cc2ccc(O)cc2)NC(=O)[C@H]([C@@H](C)O)NC(=O)[C@H](Cc2ccccc2)NC1=O (cyclo(YTRFFNAFTY[dP]P))
Kb (Melanocortin receptor 3): 1260 nM
Kb (Melanocortin receptor 4): 158 nM
EC50 [1]: 11600 nM

C[C@@H]1NC(=O)C(CN)NC(=O)[C@H](Cc2ccccc2)NC(=O)[C@H](Cc2ccccc2)NC(=O)[C@H](CCCNC(=N)N)NC(=O)[C@@H]2CCCN2C(=O)[C@H]2CCCN2C(=O)[C@H](Cc2ccccc2)NC1=O (stereo not given in full)
Ki (Melanocortin receptor 3): 130 nM
Kb (Melanocortin receptor 3): 126 nM
Activity [2]: 75%

C[C@@H]1NC(=O)[C@H](CC(N)=O)NC(=O)[C@H](Cc2ccc3ccccc3c2)NC(=O)[C@H](Cc2ccccc2)NC(=O)[C@H](CCCNC(=N)N)NC(=O)[C@@H]2CCCN2C(=O)[C@H]2CCCN2C(=O)[C@H](Cc2ccccc2)NC1=O
Ki (Melanocortin receptor 4; hek293): 63 nM
pA2 (Melanocortin receptor 4; hek293): 7.2
EC50 ([1]; hek293): 19600 nM

C[C@@H]1NC(=O)[C@H](CC(N)=O)NC(=O)[C@H](Cc2ccccc2)NC(=O)[C@H](Cc2cccc3ccccc23)NC(=O)[C@H](CCCNC(=N)N)NC(=O)[C@@H]2CCCN2C(=O)[C@H]2CCCN2C(=O)[C@H](Cc2ccccc2)NC1=O (cyclo(R[1Nal]FNAF[dP]P))
Ki (Melanocortin receptor 4; hek293): 16 nM
pA2 (Melanocortin receptor 4; hek293): 7.8
EC50 ([1]; hek293): 2500 nM

C[C@@H]1NC(=O)[C@H](CC(N)=O)NC(=O)[C@H](CCc2ccccc2)NC(=O)[C@H](Cc2ccccc2)NC(=O)[C@H](CCCNC(=N)N)NC(=O)[C@@H]2CCCN2C(=O)[C@H]2CCCN2C(=O)[C@H](Cc2ccccc2)NC1=O
EC50 ([1]; hek293): 20300 nM

C[C@@H]1NC(=O)[C@H](CC(N)=O)NC(=O)[C@H](c2ccccc2)NC(=O)[C@H](Cc2ccccc2)NC(=O)[C@H](CCCNC(=N)N)NC(=O)[C@@H]2CCCN2C(=O)[C@H]2CCCN2C(=O)[C@H](Cc2ccccc2)NC1=O
Ki (Melanocortin receptor 4; hek293): 1300 nM
pA2 (Melanocortin receptor 4; hek293): 5.9
EC50 ([1]; hek293): 21000 nM
